Test results from ChEMBL document CHEMBL1833855, “A facile synthesis of carbocycle-fused mono and bis-1,2,3-selenadiazoles and their antimicrobial and antimycobacterial studies” (2011).
≈ marks a conversion by molar mass, not a printed value.

Legend:
[1] = system: Mycobacterium tuberculosis; assay: Antituberculosis activity against 10^7 cfu/mL Mycobacterium tuberculosis H37Rv after 28 days; type: functional; conditions: 672 h
[2] = system: Escherichia coli; assay: Antibacterial activity against Escherichia coli ATCC 25922 assessed as zone of inhibition at 100 ug/disc after 24 hrs by agar disc diffusion method; type: functional; conditions: ATCC 25922, 24 h, read-out: DIZ
[3] = system: Staphylococcus aureus; assay: Antibacterial activity against Staphylococcus aureus ATCC 11632 after 18 to 24 hrs by NCCLS M7-A5 based agar dilution method; type: functional
[4] = system: Candida albicans; assay: Antifungal activity against Candida albicans ATCC 90028 after 18 to 24 hrs by NCCLS M7-A5 based agar dilution method; type: functional
[5] = system: Staphylococcus aureus; assay: Antibacterial activity against Staphylococcus aureus ATCC 11632 assessed as zone of inhibition at 100 ug/disc after 24 hrs by agar disc diffusion method; type: functional; conditions: ATCC 11632, 24 h, read-out: DIZ
[6] = system: Candida albicans; assay: Antifungal activity against Candida albicans ATCC 90028 assessed as zone of inhibition at 100 ug/disc after 48 hrs by agar disc diffusion method; type: functional; conditions: ATCC 90028, 48 h, read-out: DIZ
[7] = system: Escherichia coli; assay: Antibacterial activity against Escherichia coli ATCC 25922 after 18 to 24 hrs by NCCLS M7-A5 based agar dilution method; type: functional
[8] = system: Escherichia coli; assay: microbe, parasite or virus in culture; conditions: ATCC 25922, 24 h, read-out: DIZ
Description: Antibacterial activity against Escherichia coli ATCC 25922 assessed as zone of inhibition at 10 ug/disc after 24 hrs by agar disc diffusion method

[9] = system: Staphylococcus aureus; assay: microbe, parasite or virus in culture; conditions: ATCC 11632, 24 h, read-out: DIZ
Description: Antibacterial activity against Staphylococcus aureus ATCC 11632 assessed as zone of inhibition at 10 ug/disc after 24 hrs by agar disc diffusion method

[10] = system: Candida albicans; assay: Antifungal activity against Candida albicans ATCC 90028 assessed as zone of inhibition at 10 ug/disc after 48 hrs by agar disc diffusion method; type: functional; conditions: ATCC 90028, 48 h, read-out: DIZ

| SMILES | MIC [1] [µM] | zone of inhibition at 100 µg/disc [2] [mm] | MIC [3] [µg/mL] | MIC [4] [µg/mL] | zone of inhibition at 100 µg/disc [5] [mm] | zone of inhibition at 100 µg/disc [6] [mm] | MIC [7] [µg/mL] | zone of inhibition at 10 µg/disc [8] [mm] | zone of inhibition at 10 µg/disc [9] [mm] | zone of inhibition at 10 µg/disc [10] [mm] |
| --- | --- | --- | --- | --- | --- | --- | --- | --- | --- | --- |
| O=C(C[C@@H](c1ccccc1)[C@@H]1CCCc2[se]nnc21)c1ccccc1 | 15.8 (≈ 6.25 µg/mL) | 18 | 12.5 (≈ 31.6 µM) | 25 (≈ 63.2 µM) | 15 | 15 | 12.5 (≈ 31.6 µM) |  |  |  |
| O=C(C[C@@H](c1ccccc1)[C@@H]1CCCc2[se]nnc21)c1ccc(Cl)cc1 | 7.2 (≈ 3.09 µg/mL) | 10 | 12.5 (≈ 29.1 µM) | 12.5 (≈ 29.1 µM) | 15 | 15 | 25 (≈ 58.2 µM) |  |  |  |
| COc1ccc(C(=O)C[C@@H](c2ccccc2)[C@@H]2CCCc3[se]nnc32)cc1 | 29.3 (≈ 12.5 µg/mL) | 12 | 25 (≈ 58.8 µM) | 25 (≈ 58.8 µM) | 15 | 15 | 12.5 (≈ 29.4 µM) |  |  |  |
| O=C(C[C@@H](c1ccccc1)[C@@H]1CCCc2[se]nnc21)c1ccc2ccccc2c1 | 28 (≈ 12.5 µg/mL) | 10 | 25 (≈ 56.1 µM) | 50 (≈ 112 µM) | 15 | 10 | 25 (≈ 56.1 µM) |  |  |  |
| Cc1ccc([C@H](CC(=O)c2ccccc2)[C@@H]2CCCc3[se]nnc32)cc1 | 15.2 (≈ 6.22 µg/mL) | < 10 | 12.5 (≈ 30.5 µM) | 25 (≈ 61.1 µM) | 15 | 13 | 25 (≈ 61.1 µM) |  |  |  |
| O=C(C[C@@H](c1ccc(Cl)cc1)[C@@H]1CCCc2[se]nnc21)c1ccccc1 | 3.6 (≈ 1.55 µg/mL) | 18 | 12.5 (≈ 29.1 µM) | 25 (≈ 58.2 µM) | 16 | 15 | 12.5 (≈ 29.1 µM) |  |  |  |
| Cc1ccc(C(=O)C[C@@H](c2ccc(Cl)cc2)[C@@H]2CCCc3[se]nnc32)cc1 | 3.5 (≈ 1.55 µg/mL) | 15 | 25 (≈ 56.3 µM) | 12.5 (≈ 28.2 µM) | 18 | 17 | 12.5 (≈ 28.2 µM) |  |  |  |
| O=C(C[C@@H](c1ccc(Cl)cc1)[C@@H]1CCCc2[se]nnc21)c1ccc(Cl)cc1 | 3.3 (≈ 1.53 µg/mL) | 20 | 6.25 (≈ 13.5 µM) | 12.5 (≈ 26.9 µM) | 20 | 15 | 6.25 (≈ 13.5 µM) |  |  |  |
| Cc1ccc(C(=O)C[C@@H](c2ccccc2)[C@@H]2CCCc3[se]nnc32)cc1 |  | 17 | 25 (≈ 61.1 µM) | 25 (≈ 61.1 µM) | 18 | 12 | 12.5 (≈ 30.5 µM) |  |  |  |
| COc1ccc([C@H](CC(=O)c2ccccc2)[C@@H]2CCCc3[se]nnc32)cc1 |  | 15 | 25 (≈ 58.8 µM) | 50 (≈ 118 µM) | 18 | 12 | 25 (≈ 58.8 µM) |  |  |  |
| COc1ccc(C(=O)C[C@@H](c2ccc(Cl)cc2)[C@@H]2CCCc3[se]nnc32)cc1 |  | 20 | 12.5 (≈ 27.2 µM) | 25 (≈ 54.4 µM) | 20 | 15 | 12.5 (≈ 27.2 µM) |  |  |  |
| c1ccc(-c2nn[se]c2[C@@H](c2ccccc2)[C@@H]2CCCc3[se]nnc32)cc1 | 51.6 (≈ 25 µg/mL) | 12 | 25 (≈ 51.6 µM) | 25 (≈ 51.6 µM) | 15 | 15 | 25 (≈ 51.6 µM) |  |  |  |
| Clc1ccc(-c2nn[se]c2[C@@H](c2ccccc2)[C@@H]2CCCc3[se]nnc32)cc1 | 48.2 (≈ 25 µg/mL) | 13 | 25 (≈ 48.2 µM) | 25 (≈ 48.2 µM) | 10 | 13 | 25 (≈ 48.2 µM) |  |  |  |
| COc1ccc(-c2nn[se]c2[C@@H](c2ccccc2)[C@@H]2CCCc3[se]nnc32)cc1 | 48.6 (≈ 25 µg/mL) | 12 | 25 (≈ 48.6 µM) | 50 (≈ 97.2 µM) | 12 | 12 | 25 (≈ 48.6 µM) |  |  |  |
| c1ccc([C@H](c2[se]nnc2-c2ccc3ccccc3c2)[C@@H]2CCCc3[se]nnc32)cc1 | 46.8 (≈ 25 µg/mL) | 10 | 50 (≈ 93.6 µM) | 50 (≈ 93.6 µM) | 10 | 10 | 25 (≈ 46.8 µM) |  |  |  |
| Cc1ccc([C@H](c2[se]nnc2-c2ccccc2)[C@@H]2CCCc3[se]nnc32)cc1 | 50.2 (≈ 25 µg/mL) | 12 | 12.5 (≈ 25.1 µM) | 50 (≈ 100 µM) | 16 | 10 | 25 (≈ 50.2 µM) |  |  |  |
| Clc1ccc([C@H](c2[se]nnc2-c2ccccc2)[C@@H]2CCCc3[se]nnc32)cc1 | 24.1 (≈ 12.5 µg/mL) | < 10 | 25 (≈ 48.2 µM) | 25 (≈ 48.2 µM) | 20 | 10 | 50 (≈ 96.4 µM) |  |  |  |
| Cc1ccc(-c2nn[se]c2[C@@H](c2ccc(Cl)cc2)[C@@H]2CCCc3[se]nnc32)cc1 | 23.5 (≈ 12.5 µg/mL) | 15 | 25 (≈ 46.9 µM) | 12.5 (≈ 23.5 µM) | 15 | 15 | 25 (≈ 46.9 µM) |  |  |  |
| Clc1ccc(-c2nn[se]c2[C@@H](c2ccc(Cl)cc2)[C@@H]2CCCc3[se]nnc32)cc1 | 22.5 (≈ 12.4 µg/mL) | 15 | 25 (≈ 45.2 µM) | 12.5 (≈ 22.6 µM) | 15 | 15 | 12.5 (≈ 22.6 µM) |  |  |  |
| Cc1ccc(-c2nn[se]c2[C@@H](c2ccccc2)[C@@H]2CCCc3[se]nnc32)cc1 | 50.2 (≈ 25 µg/mL) | 16 | 50 (≈ 100 µM) | 50 (≈ 100 µM) | < 10 | 10 | 25 (≈ 50.2 µM) |  |  |  |
| COc1ccc([C@H](c2[se]nnc2-c2ccccc2)[C@@H]2CCCc3[se]nnc32)cc1 | 48.6 (≈ 25 µg/mL) | 15 | 50 (≈ 97.2 µM) | 50 (≈ 97.2 µM) | 15 | < 10 | 50 (≈ 97.2 µM) |  |  |  |
| COc1ccc(-c2nn[se]c2[C@@H](c2ccc(Cl)cc2)[C@@H]2CCCc3[se]nnc32)cc1 | 45.5 (≈ 25 µg/mL) | 18 | 25 (≈ 45.6 µM) | 25 (≈ 45.6 µM) | 18 | 15 | 12.5 (≈ 22.8 µM) |  |  |  |
| O=C(O)c1cn(C2CC2)c2cc(N3CCNCC3)c(F)cc2c1=O [CIPROFLOXACIN] |  |  |  |  |  |  |  | 28 | 25 |  |
| Clc1ccccc1C(c1ccccc1)(c1ccccc1)n1ccnc1 [CLOTRIMAZOLE] |  |  |  | 6.25 (≈ 18.1 µM) |  |  |  |  |  | 28 |
| CC[C@@H](CO)NCCN[C@@H](CC)CO [ETHAMBUTOL] | 7.6 (≈ 1.55 µg/mL) |  |  |  |  |  |  |  |  |  |
| NNC(=O)c1ccncc1 [ISONIAZID] | 0.4 (≈ 0.0549 µg/mL) |  |  |  |  |  |  |  |  |  |
| CO[C@H]1/C=C/O[C@@]2(C)Oc3c(C)c(O)c4c(O)c(c(/C=N/N5CCN(C)CC5)c(O)c4c3C2=O)NC(=O)/C(C)=C\C=C\[C@H](C)[C@H](O)[C@@H](C)[C@@H](O)[C@@H](C)[C@H](OC(C)=O)[C@@H]1C [RIFAMPIN] | 0.1 (≈ 0.0823 µg/mL) |  |  |  |  |  |  |  |  |  |
